Where no end group is shown, it is not given here.
Test system: vTreg53 Treg cells
Assay: Proliferation of transferred vTreg53 Treg cells in spleen after immunization
Assay type: in vivo, mouse
Settings: CFA/Fat1562, 200 µg s.c., three days
Description: Figure 4. SPs induce proliferation and activation of vTreg53 Treg cells in vitro and in vivo. (A–D) Proliferation and activation of vTreg53 Treg cells by different concentrations of SPs for 3 days in vitro (n = 3). (A) Representative flow cytometric plot of cell division. (B) Summary of cell proliferation. (C) Mean flourescence intensity (MFI) of CD44 staining in clonotype^+ Treg cells. (D) MFI of CD62L staining in clonotype^+ Treg cells. (E) Proliferation of transferred CD45.2^+ vTreg53 Treg cells in the spleen of CD45.1^+ B6 recipient mice immunized s.c. with CFA or CFA/Fat1562 at day 3 (n = 3). […]
To assess early Treg proliferation following peptide stimulation in vivo, 0.4 million Treg cells were sorted from pooled Spl and LNs of 6-8wk-old male CD45.2^+ Tg^+ Foxp3-GFP^KI/y mice by Moflo, labeled by the CellTrace Violet dye (ThermoFisher Scientific), and were i.v.-injected into 6-8wk old male B6.CD45.1^+ mice. […] Proliferation of clonotype^+ Tregs in the spleen was determined three days later. […] Six weeks later, the recipient mice were immunized with 200 µg CFA/peptides s.c. on the lower back, and one week later were boosted with 100 μg IFA/peptides i.p. After another week, clonotype^+ CD45.2^+ Treg cells from the Spl/LNs or VAT of recipient mice were analyzed by flow cytometry and double-sorted for ultra-low-input RNA-seq. […]

TMYKNPRPMAATG [Fat1562]
proliferation of transferred clonotype^+ Treg cells in spleen: robust proliferation

— paper PMC7440915, “Discovery of surrogate agonists for visceral fat Treg cells that modulate metabolic indices in vivo” (eLife, 2020)
